Data: ChEMBL document CHEMBL4325854, “Synthetic small molecules as anti-biofilm agents in the struggle against antibiotic resistance” (Eur J Med Chem, 2019)
Blank lines part the entries; values can stand above or below the compound they belong to.

Experiments:
[1] = test system: Pseudomonas aeruginosa; test: Antibiofilm activity against Pseudomonas aeruginosa PA14 assessed as inhibition of biofilm dispersion; assay type: functional, organism-based
[2] = test system: Pseudomonas aeruginosa; test: Antibiofilm activity against Pseudomonas aeruginosa PAO1 assessed as inhibition of biofilm dispersion; assay type: functional, organism-based
[3] = test system: Staphylococcus aureus; test: Antibiofilm activity against Staphylococcus aureus ATCC 29213 at 1.5 ug/ml relative to control; assay type: functional
[4] = test system: Staphylococcus epidermidis; test: Antibiofilm activity against Staphylococcus epidermidis DSM 3269 at 1.5 ug/ml relative to control; assay type: functional
[5] = test system: Staphylococcus epidermidis; test: Antibiofilm activity against Staphylococcus epidermidis RP62A at 1.5 ug/ml relative to control; assay type: functional
[6] = test system: Staphylococcus aureus; test: Antibiofilm activity against Staphylococcus aureus isolate 702 at 1.5 ug/ml relative to control; assay type: functional
[7] = test system: Staphylococcus aureus; test: Antibiofilm activity against Staphylococcus aureus ATCC 25923 at 1.5 ug/ml relative to control; assay type: functional
[8] = test system: Staphylococcus aureus; test: Antibiofilm activity against Staphylococcus aureus isolate 657 at 1.5 ug/ml relative to control; assay type: functional
[9] = test system: Staphylococcus aureus; test: Antibiofilm activity against methicillin-resistant Staphylococcus aureus; assay type: functional, organism-based; settings: Staphylococcus aureus
[10] = target: T1, Sortase A (Staphylococcus aureus, UniProt Q9S446); test: Inhibition of Staphylococcus aureus SrtA
T1 sequence (Q9S446 whole entry): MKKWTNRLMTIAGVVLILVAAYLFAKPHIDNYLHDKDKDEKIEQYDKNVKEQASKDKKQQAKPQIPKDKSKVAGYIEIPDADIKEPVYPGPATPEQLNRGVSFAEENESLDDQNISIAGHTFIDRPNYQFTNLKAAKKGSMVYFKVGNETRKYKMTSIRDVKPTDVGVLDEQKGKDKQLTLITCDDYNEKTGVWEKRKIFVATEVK

[11] = test system: Staphylococcus aureus; test: Antibiofilm activity against Staphylococcus aureus at 100 uM relative to control; assay type: functional
[12] = test system: Bordetella bronchiseptica; test: Antibiofilm activity against Bordetella bronchiseptica RB50 assessed as inhibition of biofilm dispersion; assay type: functional, organism-based
[13] = test system: Staphylococcus aureus; test: Antibiofilm activity against Staphylococcus aureus BAA-1026; assay type: functional
[14] = test system: Enterococcus faecalis; test: Antibiofilm activity against Enterococcus faecalis ATCC 29212; assay type: functional
[15] = test system: Staphylococcus epidermidis; test: Antibiofilm activity against Staphylococcus epidermidis at 25 ug/ml relative to control; assay type: functional
[16] = test system: Staphylococcus aureus; test: Antibiofilm activity against Staphylococcus aureus ATCC 29213 at 25 ug/ml relative to control; assay type: functional
[17] = test system: Acinetobacter baumannii; test: Antibiofilm activity against Acinetobacter baumannii preformed biofilms; assay type: functional, organism-based
[18] = test system: Staphylococcus aureus; test: Synergistic antibacterial activity against methicillin-resistant Staphylococcus aureus assessed as fold reduction in penicillin G MIC; assay type: functional
[19] = test system: Staphylococcus aureus; test: Synergistic antibacterial activity against methicillin-resistant Staphylococcus aureus assessed as fold reduction in oxacillin MIC; assay type: functional

IC50 [1]: 39.9 µM
IC50 [2]: 32.7 µM
SMILES: CCCCCCNC(=O)CCCc1c[nH]c(N)n1

IC50 [1]: 13.3 µM
IC50 [2]: 18.4 µM
SMILES: CCCCCCCCNC(=O)CCCc1c[nH]c(N)n1

SMILES: O=C(c1cc(Cl)cc(Cl)c1O)c1[nH]c(Cl)c(Cl)c1Cl
Activity [3]: >60%
Activity [4]: >60%
Activity [5]: >60%
Activity [6]: >60%
Activity [7]: >60%
Activity [8]: >60%

SMILES: CCCCCCc1ccc(NC(=O)CCn2cc(C[C@@]34CNC[C@@H]3Nc3ccccc34)nn2)cc1
IC50 [9]: 3.4 µM

SMILES: CC(=O)/C(=N\Nc1ccccc1)C(=O)O
IC50 [10]: 50 to 92 µM
Activity [11]: 39.2 - 68.3%

SMILES: Nc1nc(CCCNC(=O)c2cc(Br)c(Br)n2-c2ccc(Br)cc2)c[nH]1
IC50 [1]: 16.4 µM
IC50 [12]: 29.3 µM

SMILES: O=C(c1cc(Br)ccc1O)c1[nH]c(Cl)c(Cl)c1Br
Activity [3]: >60%
Activity [4]: >60%
Activity [5]: >60%
Activity [6]: >60%
Activity [7]: >60%
Activity [8]: >60%

SMILES: NC(=O)c1cc(-c2csc(-c3ccc(-c4csc(-c5ccccc5)n4)cc3)n2)ccc1O
MBEC [13]: 250 µg/mL
MBEC [14]: 8 µg/mL

SMILES: CCCCc1ccc(C(=O)NCCn2cc(CCCCc3[nH]c(N)nc3-c3ccoc3)nn2)cc1
IC50 [9]: 7.2 µM

SMILES: Cc1nn(C)c([N-]C(=O)c2ccc(Cl)cc2)c1[N+]#N
Activity [15]: 69 - 96%
Activity [16]: 69 - 96%

SMILES: C/C(=C\c1cccc2ccccc12)Cn1cc(CCCCCc2c[nH]c(N)n2)nn1
EC50 [17]: 44.7 to 59.6 µM
EC50 [9]: 4.5 to 9.8 µM

SMILES: CCCCCc1cccc(C(=O)NCCNC(=O)CCCCCc2cnc(N)[nH]2)c1
fold change (FC) [18]: 16
fold change (FC) [19]: 64
IC50 [9]: 6.5 µg/mL

SMILES: COc1ccc(-c2csc(-c3ccc(-c4csc(-c5ccccc5)n4)cc3)n2)cc1
MBEC [13]: 62 µg/mL
MBEC [14]: 4 µg/mL

SMILES: CC(=O)/C(=N\Nc1ccc(Cl)c(Cl)c1)C(=O)O
IC50 [10]: 50 to 92 µM
Activity [11]: 39.2 - 68.3%

SMILES: CCCc1ccc(-c2[nH]c(N)nc2CCCCCc2cn(C/C(C)=C/c3ccccc3)nn2)cc1
IC50 [17]: 11.3 µM
IC50 [9]: 1.42 µM

SMILES: Clc1ccc(-c2csc(-c3ccc(-c4csc(-c5ccccc5)n4)cc3)n2)cc1
MBEC [13]: >1000 µg/mL
MBEC [14]: 16 µg/mL

SMILES: CCCCc1ccc(C(=O)NCCn2cc(CCCCc3[nH]c(N)nc3-c3ccc4c(c3)OCO4)nn2)cc1
IC50 [9]: 3.7 µM

SMILES: CCCCOc1ccc(Br)c(/C=C(\C)Cn2cc(CCCCCc3c[nH]c(N)n3)nn2)c1F
EC50 [17]: 44.7 to 59.6 µM
EC50 [9]: 4.5 to 9.8 µM

SMILES: CC(=O)/C(C#N)=N\Nc1ccccc1
IC50 [10]: 50 to 92 µM
Activity [11]: 39.2 - 68.3%

IC50 [1]: 6 µM
IC50 [2]: 8 µM
SMILES: CCCCCCCCCCNC(=O)CCCc1c[nH]c(N)n1

SMILES: CC(=O)/C(=N\Nc1cccc(Cl)c1)C(=O)O
IC50 [10]: 50 to 92 µM
Activity [11]: 39.2 - 68.3%

SMILES: Cc1nn(C)c([N-]C(=O)c2ccc(Cl)cc2Cl)c1[N+]#N
Activity [15]: 69 - 96%
Activity [16]: 69 - 96%

SMILES: COC(=O)Oc1c(Br)cc(Br)c2nc3ccccc3nc12
IC50 [9]: 1.4 to 2.9 µM

SMILES: O=C(Oc1c(Br)cc(Br)c2nc3ccccc3nc12)c1ccco1
IC50 [9]: 1.4 to 2.9 µM

SMILES: c1ccc(-c2csc(-c3ccc(-c4csc(-c5ccccc5)n4)cc3)n2)cc1
MBEC [13]: 1000 µg/mL
MBEC [14]: 2 µg/mL
